What was measured:
[1] = system: BxPC3 cells; test: Colorimetric assay of lactate secretion by BxPC3 cells (expressing LDH-B); format: cell-based, human; conditions: BxPC3, 80 μM peptide with Lipofectamine 2000 (0.5% v/v), 1% DMSO, Krebs-Ringer buffer, 4 h, 37°C, n = 3
Source text: Having identified peptides able to interfere with the assembly of monomeric LDH‐A into catalytically active tetramer, we considered of interest to test the action of peptides against LDH‐A expressed in human cell lines. In particular, we analyzed the lactate secreted by cultured human cells exposed or not to the peptides better performing as inhibitors of LDH‐A in vitro, that is, TH1, TH2, and TH16. Moreover, we used two different cell lines exclusively expressing LDH‐A or LDH‐B, that is, MCF7 and BxPC3, respectively. In MCF7 cells, the [mRNALDH‐A]/[mRNALDH‐B] ratio is indeed equal to ca. 150 (Figure 9a), whereas in BxPC3 cells the messenger coding for LDH‐A was not detected (Figure 9a). Therefore, by comparing the decrease, if any, of the lactate concentration secreted by these two cell lines the selectivity of peptides acting against LDH‐A or LDH‐B can be conveniently estimated. When the MCF7 cell line is considered, the linear TH16 and the cyclic TH2 tetrapeptide performed equally, being both responsible for a concentration of secreted lactate 20% lower than that detected in their absence (Figure 9b). […] It should indeed be noted that the assays with cells were performed in the presence of lipofectamine (see Section 5). […] Accordingly, it seems likely that lipofectamine is effective in assisting the penetration of the TH16 and TH2 peptides into cells, with this action of lipofectamine being much weaker when dealing with a larger molecule, that is, an octapeptide.
To evaluate the competence of peptides in inhibiting the action of LDH‐A in cultured cells, two human cell cultures were used: MCF7 and BxPC3, isolated from breast and pancreatic adenocarcinoma, respectively. […]
The competence of peptides in inhibiting LDH in cultured cells was tested by assessing the concentration of lactate released by MCF7 and BxPC3 cell cultures. […] The concentration of lactate released in the Krebs–Ringer buffer was determined after 4 h of incubation at 37°C, using the colorimetric assay previously reported (Rossi et al., [2023]). […]

[2] = molecular target: T1, tetrameric LDH‐A (Homo sapiens, UniProt P00338); test: Activity assay of tetrameric LDH-A in the presence of peptide; format: biochemical; conditions: 6 nM tetrameric LDH-A, 10 mM Tris-HCl pH 7.5, 150 mM NaCl, 80 μM peptide
T1 construct: made in house; host or cells: E. coli BL21(DE3), pET9a (NdeI/BamHI)
Procedure: In particular, all the peptides were tested at 80 μM (final concentration), and the LDH activity detected in their presence was compared with the catalytic action observed with control samples devoid of any peptide. First, we decided to assay the octameric peptide TH1, the primary structure of which ([…]) is identical to the LDH‐A region spanning residues 295–302. […] Indeed, the catalytic action exerted by 6 nM tetrameric LDH‐A (in 10 mM Tris–HCl, pH 7.5, containing 150 mM NaCl) was determined as equal to 433 ± 11 and 452 ± 19 nM/s in the absence and in the presence of 80 μM TH1 octapeptide, respectively. Overall, this insensitivity along with the significant effect elicited by TH1 on monomeric LDH‐A indicate that the octapeptide inhibits the assembly of LDH‐A monomers into the corresponding, catalytically active, tetramer. To dissect the inhibition triggered by TH1 on monomeric LDH‐A, we decided to evaluate: (i) whether or not the two halves of the octapeptide, that is, GQNG and ISDL, are equally competent in inhibiting LDH‐A; (ii) the action of linear and cyclic peptides, containing or not D amino acids; and (iii) the effect, if any, triggered by the presence of protecting groups in the peptides to be assayed. […]

[3] = molecular target: T2, monomeric human LDH‐A (Homo sapiens, UniProt P00338); test: Inhibition by peptides of LDH-A activity gained on assembly of monomeric LDH-A into tetramer; format: biochemical; conditions: 80 μM peptide incubated 5 min with 6.2 nM monomeric LDH-A, 10 mM Tris-HCl + 10 mM BisTris pH 7.5, started with 125 μM β-NADH and 500 μM pyruvate, 25°C, A340, vs control with 1% DMSO, mean ± SD, n = 3
T2 construct: made in house; host or cells: E. coli BL21(DE3), pET9a (NdeI/BamHI)
Procedure: In particular, all the peptides were tested at 80 μM (final concentration), and the LDH activity detected in their presence was compared with the catalytic action observed with control samples devoid of any peptide. First, we decided to assay the octameric peptide TH1, the primary structure of which ([…]) is identical to the LDH‐A region spanning residues 295–302. […] Indeed, the catalytic action exerted by 6 nM tetrameric LDH‐A (in 10 mM Tris–HCl, pH 7.5, containing 150 mM NaCl) was determined as equal to 433 ± 11 and 452 ± 19 nM/s in the absence and in the presence of 80 μM TH1 octapeptide, respectively. Overall, this insensitivity along with the significant effect elicited by TH1 on monomeric LDH‐A indicate that the octapeptide inhibits the assembly of LDH‐A monomers into the corresponding, catalytically active, tetramer. To dissect the inhibition triggered by TH1 on monomeric LDH‐A, we decided to evaluate: (i) whether or not the two halves of the octapeptide, that is, GQNG and ISDL, are equally competent in inhibiting LDH‐A; (ii) the action of linear and cyclic peptides, containing or not D amino acids; and (iii) the effect, if any, triggered by the presence of protecting groups in the peptides to be assayed. It should be noted that to allow the cyclization of tetrapeptide GQNG while maintaining a terminal carboxylic group, the sequence was modified to GQND, while for the cyclization of ISDL while maintaining a terminal amino group, the sequence was modified into KSDL (Table 1).
FIGURE 8 Inhibition exerted by linear and cyclic peptides on LDH‐A activity detected in vitro. […] The gray bars (in “a” and “d”) represent the activity observed in the presence of the same volume of DMSO (1%, v/v) carried to the assay mixtures by the peptides to be tested. (a–c) The effect, if any, of tetrameric peptides featuring the GQND primary structure (see also Table 1) on LDH‐A activity is shown. The inhibition exerted by the octameric peptide TH1 is also reported in “a.” The enzyme activity observed in the presence of linear or cyclic peptides is shown in “b” and “c”, respectively. (d) Extent of LDH‐A activity detected in the presence of linear or cyclic tetrapeptides featuring the KSDL primary structure. Error bars represent SD (n = 3). The experimental observations were compared by Student's t‐test. The ***, **, and * symbols denote p values lower than 0.001, 0.01, and […], respectively. (e) Simulation of the association between the TH2 peptide and monomeric LDH‐A. Predicted interactions between the cyclopeptide c[GQN‐isoD] (TH2) and the N‐terminal sequence Y^9[…]^19, as simulated by molecular dynamics in a box of explicit TIP3P water molecules; gray and red dotted lines represent hydrogen bonds and salt bridges, respectively.
All the assays were performed at 25°C using a Cary 300 Bio spectrophotometer.

[4] = system: MCF7 cells; test: Colorimetric assay of lactate secretion by MCF7 cells (expressing LDH-A); format: cell-based, human; conditions: for decrease of the concentration of secreted lactate: MCF7, 80 μM peptide with Lipofectamine 2000 (0.5% v/v), 1% DMSO, Krebs-Ringer buffer, 4 h, 37°C, colorimetric, n = 3, vs cells without peptide
Source text: Having identified peptides able to interfere with the assembly of monomeric LDH‐A into catalytically active tetramer, we considered of interest to test the action of peptides against LDH‐A expressed in human cell lines. In particular, we analyzed the lactate secreted by cultured human cells exposed or not to the peptides better performing as inhibitors of LDH‐A in vitro, that is, TH1, TH2, and TH16. Moreover, we used two different cell lines exclusively expressing LDH‐A or LDH‐B, that is, MCF7 and BxPC3, respectively. In MCF7 cells, the [mRNALDH‐A]/[mRNALDH‐B] ratio is indeed equal to ca. 150 (Figure 9a), whereas in BxPC3 cells the messenger coding for LDH‐A was not detected (Figure 9a). Therefore, by comparing the decrease, if any, of the lactate concentration secreted by these two cell lines the selectivity of peptides acting against LDH‐A or LDH‐B can be conveniently estimated. When the MCF7 cell line is considered, the linear TH16 and the cyclic TH2 tetrapeptide performed equally, being both responsible for a concentration of secreted lactate 20% lower than that detected in their absence (Figure 9b). […] Accordingly, it seems likely that lipofectamine is effective in assisting the penetration of the TH16 and TH2 peptides into cells, with this action of lipofectamine being much weaker when dealing with a larger molecule, that is, an octapeptide.
To evaluate the competence of peptides in inhibiting the action of LDH‐A in cultured cells, two human cell cultures were used: MCF7 and BxPC3, isolated from breast and pancreatic adenocarcinoma, respectively. Cultures were grown in DMEM (MCF7) or RPMI medium (BxPC3), supplemented with 100 U/ml penicillin/streptomycin, 2 mM glutamine and 10% (v/v) FBS. All the components of the media used for cell culture were obtained from Merck‐Millipore.
The competence of peptides in inhibiting LDH in cultured cells was tested by assessing the concentration of lactate released by MCF7 and BxPC3 cell cultures. To this aim, cells were seeded in duplicate in 24‐wells plates (2 × 10^5/well) and let to adhere overnight; the culture medium was then replaced by Krebs‐Ringer buffer (300 μl/well). Stock solutions of peptides (8 mM in DMSO) were diluted in Krebs‐Ringer buffer to a final concentration of 640 μM and mixed with an equal volume of 4% (v/v, in Krebs‐Ringer buffer) Lipofectamine 2000 (Invitrogen). The final solution was thoroughly mixed, kept for 25 min at room temperature, and finally 100 μl were added to each plate well, obtaining a final peptide concentration equal to 80 μM. The concentration of lactate released in the Krebs–Ringer buffer was determined after 4 h of incubation at 37°C, using the colorimetric assay previously reported (Rossi et al., [2023]). Each experiment was performed in triplicate and included control samples consisting of untreated cell cultures exposed to the same final concentration of DMSO (1%, v/v) and Lipofectamine (0.5%, v/v) to which were exposed the samples treated with peptides.

[5] = molecular target: T2, monomeric human LDH‐A; test: Steady-state kinetics of pyruvate reduction by monomeric LDH-A (assembled monomers); format: biochemical; conditions: variable β-NADH, 500 μM pyruvate, 7.6 nM monomer, pH 7.5, 25°C
Procedure: (§1) To further characterize the catalytic action of monomeric LDH-A exposed to β-NADH and pyruvate, and therefore assembled into tetramer (cf. […] In addition, the kinetics of pyruvate reduction catalyzed by tetrameric LDH-A was assayed under the same conditions used for the monomeric enzyme. Structurally and functionally speaking, the availability of monomeric LDH-A does indeed provide an unprecedented and quite interesting tool to perform quantitative tests of the assembly of monomers into the corresponding catalytically active tetramer. […] In addition to this, the enzyme kinetic parameters were also determined testing reaction velocity as a function of β-NADH concentration, in the presence of 500 μM pyruvate. […] The continuous lines represent the best fit of the Michaelis-Menten equation to the experimental observations. […] The continuous lines represent the best fit of the Michaelis-Menten equation to the experimental observations. (c) Kinetic parameters determined by performing activity assays using monomeric or tetrameric LDH-A, at the indicated final concentrations. Under conditions of variable pyruvate concentration, β-NADH was always used at 125 μM. When reaction mixtures contained variable concentrations of the redox cofactor, pyruvate was invariably added at 500 μM. All the assays were performed at pH 7.5 (Tris-BisTris, 10 mM each.

[6] = molecular target: T1, tetrameric LDH‐A; test: Steady-state kinetics of pyruvate reduction by tetrameric LDH-A; format: biochemical; conditions: variable β-NADH, 500 μM pyruvate, 1.9 nM tetramer, pH 7.5, 25°C
Procedure: as §1

[7] = system: LDH‐A; conditions: dynamic light scattering; shift from about 240 kDa; ref Jafary et al., 2019; cited from earlier work
Source text: In particular, the loss of activity related to the dissociation of tetrameric LDH‐A (Hermann et al., [1981]; Pasti et al., [2022]) prompts the search for peptides able to interfere with the quaternary structure of this enzyme. Peptides can indeed mimic a secondary structure element supposed to be a major determinant of the reciprocal interactions engaged by the subunits of an oligomeric protein (Wang et al., [2021]). Nevertheless, it should be noted that the effectivenes ...

Inhibition (%) of LDH‐A activity [3] [%] | Substance | effect on lactate secretion [1] | decrease of the concentration of secreted lactate [4] | apparent LDH‐A molecular mass in the presence of peptide [7] | other results
36 ± 1 | H-GQNGISDL-OH [TH1] | did not induce any significant effect | did not induce any significant effect |  | inhibition of tetrameric LDH‐A activity (in words) [2]: no significant inhibition; catalytic action exerted by tetrameric LDH‐A in the presence of peptide ([2]; without peptide 433 ± 11 nM/s): 452 ± 19 nM/s
 | β‐NADH |  |  |  | K m for β‐NADH, monomeric LDH‐A (assembled monomers) [5]: 7.7 ± 1.1 µM; K m for β‐NADH, tetrameric LDH‐A [6]: 9.0 ± 0.6 µM
 | KVVYNV [hexamer of the literature targeting the C‐terminal region of LDH‐A] |  |  | ca. 100 kDa | 
 | IYNLLK [hexamer of the literature targeting the C‐terminal region of LDH‐A] |  |  | ca. 100 kDa | 
22 ± 2 | H‐Gly‐Gln‐Asn‐Asp‐OH [TH16] | no significant differences | 20% |  | effect on lactate production in the absence of lipofectamine ([4]; MCF7, peptide without lipofectamine): negligible and not significant effects

Source: publication PMC11400633, “Peptides inhibiting the assembly of monomeric human L‐lactate dehydrogenase into catalytically active homotetramer decrease the synthesis of lactate in cultured cells” (Protein Science : A Publication of the Protein Society, 2024)
